# Measurements from patent EP0472800A1, “Metoprololnicotinic acid ester, method of preparation and pharmaceutical use” (Sandmeier, Peter, Dr., priority 1990, dated 1992).
# Where a name gives a salt, the structure may show the parent alone.
# Parameters: species or system Hunden
# Settings: dog, in vivo, 0 min
# From the text: Die verhältnismässig einfache Synthese führt zu einer bemerkenswert hohen Ausbeute des erfinderischen Moleküls, der Metoprololnicotinsäure. Die an Hunden experimentierte Prodrugwirkung in drei verschiedenenen Dosen ergab folgende Retardwerte: (µg freie Base im Zielkompartiment)
# Das Resultat zeigt, dass eine relativ hohe Konzentration im Plasma bis zu vier Stunden erwartet werden kann, was die deutlich retardierte Prodrugwirkung beweist. Die Dosis C zeigt unter anderem, dass auch kleine Konzentrationen einen langanhaltenden Spiegel zeigen.
smiles,measurement,value
"COCCc1ccc(OCC(CNC(C)C)OC(=O)c2cccnc2)cc1 (racemic) [Metoprololnicotinsäure, Metoprololnicotinsäureester-HCl]",freie Base im Zielkompartiment (Retardwerte),0 µg
